Experimental data taken from patent US20030236399A1, “Method of improving the quality of taste of natural sweetner” (Shangdong Hua Xian Stevia Co., Ltd., priority 2002, published 2003).

How the values were obtained:
[1] = Dissolving under ambient temperature, before and after the process; format: physicochemical
Source text: Comparisons have been made between the natural sweetener before and after the process of the present invention and the results are illustrated as follow: […]

[2] = background statement; cited from earlier work
[3] = high temperature, high acidity and high alkalinity; cited from earlier work

| Solubility under ambient temperature ([1]; Sweetness equivalent to 5% sucrose solution) | Solubility under ambient temperature ([1]; Sweetness equivalent to 10% sucrose solution) | Solubility under ambient temperature ([1]; Sweetness equivalent to 15% sucrose solution) | Compound | Sweetness level relative to sucrose [2] | Stability of structure [3] |
| --- | --- | --- | --- | --- | --- |
| insoluble under ambient | insoluble under ambient |  | C=C1C[C@@]23CC[C@H]4[C@@](C)(CCC[C@@]4(C)C(=O)O[C@@H]4O[C@H](CO)[C@@H](O)[C@H](O)[C@H]4O)[C@@H]2CC[C@]1(O[C@@H]1O[C@H](CO)[C@@H](O)[C@H](O)[C@H]1O[C@@H]1O[C@H](CO)[C@@H](O)[C@H](O)[C@H]1O)C3 [stevioside] | 200-300 times higher than that of sucrose | stable in structure |
|  |  | taste, easy to dissolve under | α-glycosyl stevioside |  |  |
